# Test results reported in article PMC12019622 (World Journal of Experimental Medicine, 2025).
# Assays:
# [1] = system: IOMM-Lee malignant meningioma cell line; test: Growth inhibition experiment; type: cell-based; details: read-out: IC50 value
# [2] = system: HKBMM malignant meningioma cell line; test: Growth inhibition experiment; type: cell-based; details: read-out: IC50 value
# [3] = system: blood-brain barrier (BBB); details: cited from earlier work
# [4] = Tissue distribution: blood concentration and brain distribution by HPLC; type: in vivo, C57BL/6 (B6) mice; details: male, C57BL/6, mouse, intraperitoneal, 2 mg/kg
# Malignant meningioma = details: clinical, cited from earlier work; for partial response (PR) rate: malignant meningioma
compound,measurement,setting,value
"COc1cc(C=CC(=O)C=Cc2ccc(O)c(OC)c2)ccc1O [GO-Y022, 1,5-bis (4-hydroxy-3-methoxyphenyl)-1,4-pentadiene-3-one]",IC50,[1],4.3 µM
same,IC50,[2],4.5 µM
same,permeability across the blood-brain barrier (BBB),[3],8.2 ± 1.3 × 10^−6 cm/s
"COCOc1cc(/C=C/C(=O)/C=C/c2cc(OCOC)cc(OCOC)c2)cc(OCOC)c1 [GO-Y030, (1E,4E)-1,5-bis [3,5-bis (methoxymethoxy)phenyl] penta-1,4-dien-3-one]",concentration at 1 h,[4]; brain,0 ng/g
same,concentration at 3 h,[4]; brain,26.8 ng/g
same,concentration at 6 h,[4]; brain,23.1 ng/g
same,concentration at 1 h,[4]; serum,18 ng/mL
same,concentration at 3 h,[4]; serum,46.7 ng/mL
same,concentration at 6 h,[4]; serum,58.2 ng/mL
CCN(CC)CCNC(=O)c1c(C)[nH]c(/C=C2\C(=O)Nc3ccc(F)cc32)c1C [Sunitinib],6-month progression-free survival rate,Malignant meningioma; meningioma,42%
same,PR rate,Malignant meningioma; meningioma,5.55%
"COc1cc(/C=C/C(=O)CC(=O)/C=C/c2ccc(O)c(OC)c2)ccc1O [curcumin, Curcumin, reference compound]",IC50,[1],13.3 µM
same,IC50,[2],20 µM
same,permeability across the blood-brain barrier (BBB),[3],0.60 ± 0.67 × 10^−6 cm/s
NC(=O)NO [hydroxyurea],partial response (PR) rate,Malignant meningioma,0%-10%
CC#C[C@]1(O)CC[C@H]2[C@@H]3CCC4=CC(=O)CCC4=C3[C@@H](c3ccc(N(C)C)cc3)C[C@@]21C [mifepristone],partial response (PR) rate,Malignant meningioma,1.4%-30.76%
CC/C(=C(\c1ccccc1)c1ccc(OCCN(C)C)cc1)c1ccccc1 [tamoxifen],partial response (PR) rate,Malignant meningioma,5%-16.66%
